Laboratory results taken from article PMC5895059, “Scaffold hopping from (5-hydroxymethyl) isophthalates to multisubstituted pyrimidines diminishes binding affinity to the C1 domain of protein kinase C” (PLoS ONE, 2018).
Several values for one entry are separate records, joined by “and”; a condition that tells them apart may be missing. Equal entries are not always repeated.

Assays:
[1] = molecular target: T1, PKCα (Homo sapiens, UniProt P17252); conditions: read-out: Ki PKCα; cited from earlier work
[2] = molecular target: T1, PKCα; assay: [3H]PDBu displacement, 96-well plate filtration binding assay; conditions: for Displacement assay raw data (CCPM): single replicate wells; for Residual [^3H]PDBu binding to PKCα (% of control): 20 μM compound concentration, mean + SEM, n = 2–8
[3] = molecular target: PKCα and -δ; set-up: method as in PMID 19438240; conditions: for PKCα and -δ; cited from earlier work

In the case of `CCCCCCCCCCc1ccc2c(c1)N[C@@H](C(C)C)C(=O)N[C@H](CO)C2` [9-Decyl-benzolactam-V8, 9-decyl-benzolactam-V8], the Ki [1] is listed as 3.8 nM.
With `CCCCC(CC)Oc1nc(CO)nc(C(=O)OCc2cccc(C(F)(F)F)c2)c1C` (stereo not shown) [Compound 2l, 3-(trifluoromethyl)benzyl 6-(heptan-3-yloxy)-2-(hydroxymethyl)-5-methylpyrimidine-4-carboxylate] the “Displacement assay raw data (CCPM)” value ([2]; 0,2 µM test substance) was 11787 CCPM and 12303 CCPM and 12556 CCPM and 11461 CCPM and 11853 CCPM and 10747 CCPM, the “Displacement assay raw data (CCPM)” value ([2]; 1 µM test substance) was 11810 CCPM and 12833 CCPM and 12739 CCPM and 9497 CCPM and 9690 CCPM and 11213 CCPM and the “Displacement assay raw data (CCPM)” value ([2]; 4 µM test substance) was 12017 CCPM and 12127 CCPM and 12580 CCPM and 10346 CCPM and 11241 CCPM and 10654 CCPM. The “Displacement assay raw data (CCPM)” value ([2]; 10 µM test substance) was 10371 CCPM and 11662 CCPM and 12071 CCPM and 9995 CCPM and 8831 CCPM and 10464 CCPM, the “Residual [^3H]PDBu binding to PKCα (% of control)” value [2] was 87.2 ± 3.1 % of control and the “Displacement assay raw data (CCPM)” value ([2]; 20 µM test substance) was 9853 CCPM and 10455 CCPM and 11136 CCPM and 9012 CCPM and 9579 CCPM and 9472 CCPM. For the same compound, the “Displacement assay raw data (CCPM)” value ([2]; 30 µM test substance) was 9538 CCPM and 8697 CCPM and 9196 CCPM and 7998 CCPM and 9967 CCPM and 8566 CCPM and the “Displacement of [^3H]PDBu from PKCα (in words)” value ([2]; concentration range of 0.2–30 μM) was “strongest concentration dependence”.
For `O=C(OCc1cccc(C(F)(F)F)c1)c1cc(CO)cc(C(=O)OCc2cccc(C(F)(F)F)c2)c1` [HMI-1a3, reference compound], the “Residual [^3H]PDBu binding to PKCα (% of control)” value [2] was 54.8 ± 2.6 % of control.
In the case of `CCCCC(CC)OC(=O)c1cc(CO)cc(C(=O)OC(CC)CCCC)c1` (stereo not shown) [HMI-1b11], the Ki [3] is listed as 205 to 915 nM.
In the case of `CC(C)C1C(=O)NC(CO)Cc2c[nH]c3cccc(c23)N1C` (stereo not shown) [Indolactam-V, indolactam-V], the Ki [1] is listed as 11 nM.
In the case of `C/C=C(/C)C(=O)O[C@H]1C(C)=C[C@]23C(=O)[C@H](C=C(CO)[C@@H](O)[C@]12O)[C@H]1[C@@H](C[C@H]3C)C1(C)C` [Ingenol 3-angelate, ingenol 3-angelate], the Ki [1] is given as 0.1 nM.
For `CC1=CC[C@H](C)C(C)(C)[C@@H]1/C=C/C(C)=C/CC[C@@]1(CO)[C@H](CCCO)/C(=C(/C)C=O)CC[C@]1(C)O` [Iripallidal, iripallidal], the Ki [1] is given as 75.6 nM.
In the case of `C=C(C)[C@@]12O[C@@]3(c4ccccc4)O[C@@H]1[C@@H]1[C@@H]4O[C@]4(CO)[C@@H](O)[C@]4(O)C(=O)C(C)=C[C@H]4[C@@]1(O3)[C@H](C)[C@H]2OC(=O)/C=C/C=C/c1ccccc1` [Mezerein, mezerein], the Ki [1] is listed as 0.27 nM.
For `CCCCCCCCCCCCCC(=O)O[C@@H]1[C@@H](C)[C@@]2(O)[C@@H](C=C(CO)C[C@]3(O)C(=O)C(C)=C[C@@H]23)[C@@H]2C(C)(C)[C@]12OC(C)=O` [Phorbol 12-myristate-13-acetate, reference compound], the “Displacement assay raw data (CCPM)” value ([2]; 1 nM test substance, listed as PMA) was 1177 CCPM and 1302 CCPM and 1254 CCPM and 242 CCPM and 282 CCPM and 239 CCPM and 330 CCPM and 372 CCPM and 364 CCPM, the “Displacement assay raw data (CCPM)” value ([2]; 10 nM test substance, listed as PMA) was 406 CCPM and 456 CCPM and 410 CCPM and 123 CCPM and 132 CCPM and 186 CCPM and 230 CCPM and 206 CCPM and the “Displacement assay raw data (CCPM)” value ([2]; 100 nM test substance, listed as PMA) was 341 CCPM and 382 CCPM and 361 CCPM and 56 CCPM and 49 CCPM and 43 CCPM and 48 CCPM and 57 CCPM and 40 CCPM.
In the case of `CC(=O)O[C@@]12[C@H](O)[C@@H](C)[C@@]3(O)[C@@H](C=C(CO)C[C@]4(O)C(=O)C(C)=C[C@@H]34)[C@@H]1C2(C)C` [Phorbol 13-acetate, phorbol 13-acetate], the Ki [1] is given as 120000 nM.
